Measured values: the supplement of paper PMC11061612

Columns and labels:
Test in all cases: combination Emax (second highest fraction inhibited in the dose matrix, 72 h); higher = more inhibition; extreme values may be limits of the assay
[1] = system: RT-112 (Bladder Carcinoma)
Method in brief: (§1)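 After 24 hours at 37°C and 5% CO2 in 1536-well plates, cells in DMEM/F12 or RPMI plus 10% FBS received two-drug dose matrices for 72 hours. Viability came from CellTiter-Glo 2.0 luminescence and was scaled as inhibition, anchored at 0 by vehicle wells and at 1 by blank wells. Combination Emax is taken as the second-highest inhibition in the matrix, and Bliss excess as the observed combination effect less EA + EB − EA·EB, with EA and EB the single-agent effects.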

[2] = system: NCI-H747 (Colorectal Carcinoma)
Method in brief: as §1

[3] = system: MHH-PREB-1 (B-Cell Non-Hodgkin's Lymphoma)
Method in brief: as §1

[4] = system: HDLM-2 (Hodgkin's Lymphoma)
Method in brief: as §1

[5] = system: NCI-H69 (Small Cell Lung Carcinoma)
Method in brief: as §1

[6] = system: SW1271 (Small Cell Lung Carcinoma)
Method in brief: as §1

Mewo (Melanoma) = system: Mewo (Melanoma)
Method in brief: as §1

[7] = system: 8305C (Thyroid Gland Carcinoma)
Method in brief: as §1

[8] = system: LU-139 (Small Cell Lung Carcinoma)
Method in brief: as §1

[9] = system: SU-DHL-6 (B-Cell Non-Hodgkin's Lymphoma)
Method in brief: as §1

[10] = system: KARPAS-231 (B-Cell Non-Hodgkin's Lymphoma)
Method in brief: as §1

[11] = system: LB771-HNC (Head and Neck Carcinoma)
Method in brief: as §1

[12] = system: CTB-1 (B-Cell Non-Hodgkin's Lymphoma)
Method in brief: as §1

NCI-H2795 (Mesothelioma) = system: NCI-H2795 (Mesothelioma)
Method in brief: as §1

[13] = system: K5 (Thyroid Gland Carcinoma)
Method in brief: as §1

[14] = system: HO-1-u-1 (Oral Cavity Carcinoma)
Method in brief: as §1

[15] = system: Hs-633T (Other Solid Carcinomas)
Method in brief: as §1

[16] = system: LoVo (Colorectal Carcinoma)
Method in brief: as §1

[17] = system: RPMI-6666 (Non-Cancerous)
Method in brief: as §1

[18] = system: OVCAR-8 (Ovarian Carcinoma)
Method in brief: as §1

Compound	combination Emax [1]	combination Emax [2]	combination Emax [3]	combination Emax [4]	combination Emax [5]	combination Emax [6]	combination Emax (Mewo (Melanoma))	combination Emax [7]	combination Emax [8]	combination Emax [9]	combination Emax [10]	combination Emax [11]	combination Emax [12]	combination Emax (NCI-H2795 (Mesothelioma))	combination Emax [13]	combination Emax [14]	combination Emax [15]	combination Emax [16]	combination Emax [17]	combination Emax [18]
CCN(CCO)CCCOc1ccc2c(Nc3cc(CC(=O)Nc4cccc(F)c4)[nH]n3)ncnc2c1 [AZD2811] + O=C(c1cc(Cc2n[nH]c(=O)c3ccccc23)ccc1F)N1CCN(C(=O)C2CC2)CC1 [Olaparib] (first compound max 1 µM, 7x7, partner max 10 µM)	0.424	0.232	0.125	0.258	0.572	0.17	0.226	0.169	0.307	0.365	0.576	0.201	0.515	0.395	0.329	0.274	0.441	0.354	0.625	0.367
CN(CCO)CC[C@H](CSc1ccccc1)Nc1ccc(S(=O)(=O)NC(=O)c2ccc(N3CCC([C@@H](O)c4ccccc4-c4ccc(Cl)cc4)CC3)cc2)cc1S(=O)(=O)C(F)(F)F [AZD4320] + C1CN(CCC1(C(=O)N[C@@H](CCO)C2=CC=C(C=C2)Cl)N)C3=NC=NC4=C3C=CN4 [Capivasertib] (first compound max 1 µM, 7x7, partner max 3 µM)	0.147	0.387	0.173	0.841	0.892	0.158	0.204	0.506	0.912	1	1	0.259	0.295	0.271	0.499	0.744	0.298	0.633	0.916	0.146
CN(CCO)CC[C@H](CSc1ccccc1)Nc1ccc(S(=O)(=O)NC(=O)c2ccc(N3CCC([C@@H](O)c4ccccc4-c4ccc(Cl)cc4)CC3)cc2)cc1S(=O)(=O)C(F)(F)F [AZD4320] + CCN(CCO)CCCOc1ccc2c(Nc3cc(CC(=O)Nc4cccc(F)c4)[nH]n3)ncnc2c1 [AZD2811] (first compound max 1 µM, 7x7, partner max 1 µM)	0.913	0.414	0.2	0.924	0.896	0.234	0.303	0.386	0.914	0.958	1	0.191	0.503	0.284	0.33	0.824	0.54	0.317	0.982	0.651
CN(CCO)CC[C@H](CSc1ccccc1)Nc1ccc(S(=O)(=O)NC(=O)c2ccc(N3CCC([C@@H](O)c4ccccc4-c4ccc(Cl)cc4)CC3)cc2)cc1S(=O)(=O)C(F)(F)F [AZD4320] + CN(C)CCCOc1ccc(-c2ccc3ncc4c(c3c2)n(C2CCOCC2)c(=O)n4C)cn1 [AZD0156] (first compound max 1 µM, 7x7, partner max 1 µM)	0.188	0.311	0.205	0.785	0.86	0.127	0.147	0.559	0.923	0.986	0.997	0.0751	0.206	0.417	0.289	0.259	0.163	0.287	0.875	0.212
CN(CCO)CC[C@H](CSc1ccccc1)Nc1ccc(S(=O)(=O)NC(=O)c2ccc(N3CCC([C@@H](O)c4ccccc4-c4ccc(Cl)cc4)CC3)cc2)cc1S(=O)(=O)C(F)(F)F [AZD4320] + C[C@@H]1COCCN1C2=NC(=NC(=C2)C3(CC3)[S@](=N)(=O)C)C4=C5C=CNC5=NC=C4 [AZD6738] (first compound max 1 µM, 7x7, partner max 10 µM)	0.863	0.333	0.754	0.926	0.927	0.733	0.647	0.834	0.929	0.951	1	0.6	0.768	0.844	0.702	0.926	0.946	0.838	0.989	0.796
CN(CCO)CC[C@H](CSc1ccccc1)Nc1ccc(S(=O)(=O)NC(=O)c2ccc(N3CCC([C@@H](O)c4ccccc4-c4ccc(Cl)cc4)CC3)cc2)cc1S(=O)(=O)C(F)(F)F [AZD4320] + Cc1cc2ncnn2cc1Nc1ncc2c(n1)n(C1CCOCC1)c(=O)n2C [AZD7648] (first compound max 1 µM, 7x7, partner max 10 µM)	0.293	0.387	0.119	0.895	0.882	0.216	0.194	0.699	0.937	0.97	1	0.138	0.317	0.43	0.392	0.325	0.614	0.565	0.898	0.14
CN(CCO)CC[C@H](CSc1ccccc1)Nc1ccc(S(=O)(=O)NC(=O)c2ccc(N3CCC([C@@H](O)c4ccccc4-c4ccc(Cl)cc4)CC3)cc2)cc1S(=O)(=O)C(F)(F)F [AZD4320] + Cn1cnc2c(F)c(Nc3ccc(Br)cc3Cl)c(C(=O)NOCCO)cc21 [Selumetinib] (first compound max 1 µM, 7x7, partner max 3 µM)	0.552	0.793	0.164	0.847	0.885	0.534	0.528	0.71	0.928	0.974	0.977	0.255	0.591	0.827	0.679	0.465	0.5	0.516	0.992	0.498
Cc1c2c(nn1C)CSCc1cc(n(C)n1)CSc1cc(c3ccccc3c1)OCCCc1c(C(=O)O)n(C)c3c-2c(Cl)ccc13 [AZD5991] + C1CN(CCC1(C(=O)N[C@@H](CCO)C2=CC=C(C=C2)Cl)N)C3=NC=NC4=C3C=CN4 [Capivasertib] (first compound max 1 µM, 7x7, partner max 3 µM)	0.858	0.392	0.101	1	0.405	0.216	0.199	0.319	0.268	1	1	0.587	0.42	0.85	0.478	0.837	0.216	0.625	0.7	0.169
Cc1c2c(nn1C)CSCc1cc(n(C)n1)CSc1cc(c3ccccc3c1)OCCCc1c(C(=O)O)n(C)c3c-2c(Cl)ccc13 [AZD5991] + C=CCn1c(=O)c2cnc(Nc3ccc(N4CCN(C)CC4)cc3)nc2n1-c1cccc(C(C)(C)O)n1 [AZD1775] (first compound max 1 µM, partner max 1 µM)	0.981	0.598	0.853	1	0.266	0.582	0.496	0.646	0.555	1	1	0.745	0.916	0.881	0.482	0.677	0.711	0.856	0.93	0.865
Cc1c2c(nn1C)CSCc1cc(n(C)n1)CSc1cc(c3ccccc3c1)OCCCc1c(C(=O)O)n(C)c3c-2c(Cl)ccc13 [AZD5991] + CC1(C)CCC(CN2CCN(c3ccc(C(=O)NS(=O)(=O)c4ccc(NCC5CCOCC5)c([N+](=O)[O-])c4)c(Oc4cnc5[nH]ccc5c4)c3)CC2)=C(c2ccc(Cl)cc2)C1 [Venetoclax] (first compound max 1 µM, 7x7, partner max 1 µM)	0.99	0.196	0.13	1	0.522	0.0732	0.653	0.379	0.777	1	1	0.587	0.17	0.793	0.183	0.358	0.231	0.147	0.911	0.189
Cc1c2c(nn1C)CSCc1cc(n(C)n1)CSc1cc(c3ccccc3c1)OCCCc1c(C(=O)O)n(C)c3c-2c(Cl)ccc13 [AZD5991] + CCN(CCO)CCCOc1ccc2c(Nc3cc(CC(=O)Nc4cccc(F)c4)[nH]n3)ncnc2c1 [AZD2811] (first compound max 1 µM, 7x7, partner max 1 µM)	0.986	0.311	0.144	0.978	0.623	0.176	0.366	0.365	0.409	1	1	0.591	0.641	0.762	0.298	0.657	0.421	0.314	0.797	0.42
